Experimental data taken from PMC3319690 (Journal of Immunology (Baltimore, Md. : 1950), 2008).

What was measured:
CD8^+ T cells [1] = settings: mouse, in vivo
[2] = tested on: naive, epitope-specific precursor CD8^+ T cells; settings: indirect titration of TCR transgenic T cells; cited from earlier work
[3] = tested on: naive, epitope-specific precursor CD8^+ T cells; parameters: species or system mouse; settings: for Naive epitope-specific CD8^+ T cells per mouse: spleen and lymph nodes of individual naive H-2^b mice, average, n = 15–19, tetramer-based enrichment
CD8^+ T cells [4] = settings: mouse, in vivo; remark: listed apart in the source
CD8^+ T cells [5] = assay type: in vivo, mouse
CD8^+ T cells [6] = settings: mouse, in vivo; remark: listed apart in the source

## GP33–41
CD8^+ T cells [1]
  IFN-γ response to wild-type epitopes in GPVNPV-inoculated mice: significantly diminished amounts of IFN-γ
[2]
  Previous estimate of GP33–41/D^b-specific precursors: 100–200 precursors
[3]; naive H-2^b mice
  Precursor frequency relative to NP396–404/D^b-specific precursors: 4 fold
[3]
  Naive epitope-specific CD8^+ T cells per mouse: 449 CD8^+ T cells
CD8^+ T cells [4]
  CD8^+ T cell response in rVACV-immunized mice: the LCMV-specific response remained focused on the major dominant epitopes
CD8^+ T cells [5]; Fig. 8A vs Fig. 6, wild-type GP33–41 peptide
  Response to single peptide immunization relative to peptide pool immunization: ~2 fold
CD8^+ T cells [5]; pool of 28 peptides, day 11–12, H-2^b mice
  CD8^+ T cell response after peptide pool immunization: relatively strongly recognized
CD8^+ T cells [6]
  CD8^+ T cell response in F1 hybrid mice: still elicited robust T cell responses

## GP276–286 (SGVENPGGYCL; UniProt P09991 276-286, looked up, fragment)
CD8^+ T cells [1]
  IFN-γ response to wild-type epitopes in GPVNPV-inoculated mice: significantly diminished amounts of IFN-γ

## NP205–212 (YTVKYPNL; UniProt P09992 205-212, looked up, fragment)
[3]
  Naive epitope-specific CD8^+ T cells per mouse: 57 CD8^+ T cells
